Measured values as given in the NIST ThermoML archive (doi:10.1016/j.fluid.2018.10.024).
± gives the expanded uncertainty stated by the source.

What was measured:
[1] = refractive index (Na D-line) (dimensionless); settings: 101.33 kPa, Liquid, Standard Abbe refractometry
[2] = 101.33 kPa, Liquid; for viscosity: Capillary tube (Ostwald / Ubbelohde) method; for mass density: Vibrating tube method
[3] = xn = mol fraction of the nth substance listed; settings: 101 kPa, Liquid, x1 = 1; for viscosity: Capillary tube (Ostwald / Ubbelohde) method; for mass density: Vibrating tube method
[4] = refractive index (Na D-line) (dimensionless); xn = mol fraction of the nth substance listed; settings: 101 kPa, Liquid, Standard Abbe refractometry, x1 = 1

SMILES | refractive index ([1]; 298.15 K) | refractive index ([1]; 303.15 K) | refractive index ([1]; 308.15 K) | refractive index ([1]; 313.15 K) | refractive index ([1]; 318.15 K) | viscosity ([2]; 298.15 K) [mPa·s] | mass density ([2]; 298.15 K) [kg/m3] | viscosity ([2]; 303.15 K) [mPa·s] | mass density ([2]; 303.15 K) [kg/m3] | viscosity ([2]; 308.15 K) [mPa·s] | mass density ([2]; 308.15 K) [kg/m3] | viscosity ([2]; 313.15 K) [mPa·s] | mass density ([2]; 313.15 K) [kg/m3] | viscosity ([2]; 318.15 K) [mPa·s] | mass density ([2]; 318.15 K) [kg/m3] | viscosity ([3]; 298.15 K) [mPa·s] | mass density ([3]; 298.15 K) [kg/m3] | viscosity ([3]; 303.15 K) [mPa·s] | mass density ([3]; 303.15 K) [kg/m3] | viscosity ([3]; 308.15 K) [mPa·s] | further results
CC(C)=O [acetone] | 1.3558 ± 0.0006 | 1.3534 ± 0.0006 | 1.3509 ± 0.0006 | 1.349 ± 0.0006 | 1.3449 ± 0.0006 | 0.3034 ± 0.0024 | 784.41 ± 0.12 | 0.2966 ± 0.0024 | 778.66 ± 0.13 | 0.2831 ± 0.0023 | 773.08 ± 0.13 | 0.2689 ± 0.0023 | 766.95 ± 0.13 | 0.2511 ± 0.0022 | 761.26 ± 0.13 | – | – | – | – | – | –
CC(C)=O [acetone] + ClC(Cl)Cl | – | – | – | – | – | – | – | – | – | – | – | – | – | – | – | 0.3034 ± 0.0024 | 784.41 ± 0.12 | 0.2966 ± 0.0024 | 778.66 ± 0.12 | 0.2831 ± 0.0024 | mass density ([3]; 308.15 K): 773.08 ± 0.13 kg/m3; viscosity ([3]; 313.15 K): 0.2689 ± 0.0023 mPa·s; mass density ([3]; 313.15 K): 766.95 ± 0.13 kg/m3; viscosity ([3]; 318.15 K): 0.2511 ± 0.0022 mPa·s; mass density ([3]; 318.15 K): 761.26 ± 0.13 kg/m3; refractive index ([4]; 298.15 K): 1.3558 ± 0.0006; refractive index ([4]; 303.15 K): 1.3534 ± 0.0006; refractive index ([4]; 308.15 K): 1.3509 ± 0.0006; refractive index ([4]; 313.15 K): 1.349 ± 0.0006; refractive index ([4]; 318.15 K): 1.3449 ± 0.0006
CO [methanol] | 1.3271 ± 0.0006 | 1.3245 ± 0.0006 | 1.323 ± 0.0006 | 1.3208 ± 0.0006 | 1.3184 ± 0.0006 | 0.5467 ± 0.0037 | 787.21 ± 0.12 | 0.5058 ± 0.0035 | 782.75 ± 0.12 | 0.4818 ± 0.0034 | 777.56 ± 0.12 | 0.4484 ± 0.0032 | 772.97 ± 0.12 | 0.4208 ± 0.0031 | 768.03 ± 0.13 | – | – | – | – | – | –
CO [methanol] + CC(C)=O | – | – | – | – | – | – | – | – | – | – | – | – | – | – | – | 0.5467 ± 0.0037 | 787.21 ± 0.12 | 0.5058 ± 0.0035 | 782.75 ± 0.12 | 0.4818 ± 0.0034 | mass density ([3]; 308.15 K): 777.56 ± 0.12 kg/m3; viscosity ([3]; 313.15 K): 0.4484 ± 0.0032 mPa·s; mass density ([3]; 313.15 K): 772.97 ± 0.12 kg/m3; viscosity ([3]; 318.15 K): 0.4208 ± 0.0031 mPa·s; mass density ([3]; 318.15 K): 768.03 ± 0.12 kg/m3; refractive index ([4]; 298.15 K): 1.3271 ± 0.0006; refractive index ([4]; 303.15 K): 1.3245 ± 0.0006; refractive index ([4]; 308.15 K): 1.323 ± 0.0006; refractive index ([4]; 313.15 K): 1.3208 ± 0.0006; refractive index ([4]; 318.15 K): 1.3184 ± 0.0006
CO [methanol] + ClC(Cl)Cl | – | – | – | – | – | – | – | – | – | – | – | – | – | – | – | 0.5467 ± 0.0037 | 787.21 ± 0.12 | 0.5058 ± 0.0035 | 782.75 ± 0.12 | 0.4765 ± 0.0034 | mass density ([3]; 308.15 K): 777.56 ± 0.12 kg/m3; viscosity ([3]; 313.15 K): 0.4426 ± 0.0032 mPa·s; mass density ([3]; 313.15 K): 772.97 ± 0.12 kg/m3; viscosity ([3]; 318.15 K): 0.4153 ± 0.003 mPa·s; mass density ([3]; 318.15 K): 768.03 ± 0.12 kg/m3; refractive index ([4]; 298.15 K): 1.3271 ± 0.0006; refractive index ([4]; 303.15 K): 1.3245 ± 0.0006; refractive index ([4]; 308.15 K): 1.323 ± 0.0006; refractive index ([4]; 313.15 K): 1.3208 ± 0.0006; refractive index ([4]; 318.15 K): 1.3184 ± 0.0006
ClC(Cl)Cl [trichloromethane] | 1.4422 ± 0.0006 | 1.4397 ± 0.0006 | 1.4356 ± 0.0006 | 1.4338 ± 0.0006 | 1.4297 ± 0.0006 | 0.5916 | 1478.75 ± 0.38 | 0.558 | 1469.16 ± 0.37 | 0.5333 | 1460.01 ± 0.37 | 0.5072 | 1450.39 ± 0.36 | 0.4849 | 1440.03 ± 0.36 | – | – | – | – | – | –
